Reference: US20260355142A1, “AMORPHOUS OTE[…] COMPOSITIONS AND USES THEREOF AND DOSAGE REGIMENS FOR OTENAPROXESUL” (ANTIBE THERAPEUTICS INC., priority 2022, published 2026)
Values after ≈ are worked out from the molar mass of the structure shown.

Legend:
ALT and/or AST = test: Phase 2b study, liver transaminase elevations; type: in vivo, human
Method: Study visits occurred on Day 1, Day 4, and Day 14 of the 14-day treatment phase and included WOMAC evaluations, blood samples for thromboxane B2 TXB2 and pharmacokinetic (PK) testing. The safety of otenaproxesul was evaluated through monitoring for adverse events (AEs), changes in physical examinations, vital signs measurements, and clinical laboratory evaluations.
All patients receiving any amount of study treatment (otenaproxesul or placebo) were included in the safety analysis. Each treatment arm was evaluated separately. In addition to the evaluation and categorization of treatment-emergent adverse events (TEAEs), listings of laboratory test results collected at Baseline and during the study were generated. Descriptive statistics summarizing the changes in those laboratory tests over time were presented.
The majority of otenaproxesul liver associated TEAEs were alanine aminotransferase (ALT) and/or aspartate aminotransferase (AST) liver transaminase elevations. None of these TEAEs were observed during the 14-day treatment period but were captured at the Day 24/Early Termination (ET) follow up assessment.

[1] = Pharmacokinetics in Beagle dogs of five formulations (Example 15); type: in vivo; settings: Day 1, 1- and 12-hour time points
Method: (§1) The pharmacokinetics of five different formulations of otenaproxesul (formerly ATB-346) were evaluated in Beagle dogs. Five groups of dogs (n=3/group) were orally administered their assigned formulations once daily for four days. Blood samples were taken for a full 24-hour PK profile on Day 1 and on Day 4.
(§2) Group 1 was administered crystalline otenaproxesul, Group 2 was administered milled crystalline otenaproxesul, Group 3 was administered micro-milled crystalline otenaproxesul, Group 4 was administered exemplary ASD no. 1 (see Example 7A above) and Group 5 was administered exemplary ASD no. 4 (see Example 7A above). Dose administered was 15 mg/kg (human equivalent dose of 525 mg).
Crystalline otenaproxesul was administered to dog Groups 1-3 in gelatin capsules by oral gavage. Exemplary ASD no. 1 and exemplary ASD no. 4 were administered as oral suspensions to dog Groups 4-5.

[2] = H2S release / formulation stability in simulated gastric fluid; settings: SGF, 1 mg/ml, 37° C., 5% CO2
Method: (§3) Assay design: 1 mg of exemplary ASD no. 1 and crystalline otenaproxesul were weighed in separate glass vials. SGF was added to prepare a 1 mg/ml solution which was incubated at 37° C. with 5% CO2. 120 μl was removed at 0, 0.5, 1, 2, 3, 4 and 8 hrs and quenched in DPD and FeCl3 solutions. A blank and 10 mM stock was also analyzed. The methylene blue was analyzed using HPLC.
As H2S is volatile in the acidic form the calibration curve was not plotted, however H2S release was compared to T0.

[3] = Solubility in simulated intestinal fluid; type: physicochemical; settings: 0.5 wt % SIF
Source text: 1 compared to crystalline otenaproxesul in simulated intestinal fluid (SIF).

PGE2 = test: Pharmacodynamics in Beagle dogs, plasma PGE2; type: in vivo; settings: 15 mg/kg
Method: as §1, §2
Pharmacodynamic assessment of TXB2 and PGE2 plasma concentrations were assessed on: • Day 1, one hour post treatment • Day 1, 12 hours post treatment • Day 4, pre-treatment • Day 4, one hour post treatment • Day 4, 12 hours post treatment.

[4] = H2S release / formulation stability in simulated intestinal fluid; settings: SIF, 1 mg/ml, 37° C., 5% CO2
Method: as §3, with “SIF” for “SGF”, “at” for “at 0,”, “DPD (N,N-dimethyl-p-phenylenediamine sulfate)” for “DPD”, “solutions. A calibration curve was prepared to quantify amount of H2S released.” for “solutions.”

[5] = Dog pharmacokinetics of otenaproxesul amorphous dispersion (Example 20); type: in vivo, male Beagle dogs
Method: Summary: Over a 4-day treatment period dogs were administered four treatment doses of the otenaproxesul amorphous solid dispersion formulation (exemplary ASD no. 1) and a crystalline otenaproxesul control dose. Treatments corresponding to human equivalent doses of 70.2 mg, 140.4 mg, 280.8 mg and 561.6 mg otenaproxesul were administered once daily to male (n=4) dogs. Crystalline otenaproxesul was administered at the NOAEL dose equivalent to a human dose of 526.5 mg otenaproxesul once daily.
Pharmacokinetic data were evaluated on M25 plasma naproxen concentrations at 60 minutes post administration (C60), Day 1 M25 plasma exposure (AUC0-24) and Day 4 M25 plasma exposure (AUC0-Last). Assessment of dose proportional characteristics for M25 plasma concentration at 60 minutes post administration (C60) and at maximal concentration (Cmax) and AUC exposure were measured on Day 1 and Day 4 of treatment.

COc1ccc2cc([C@H](C)C(=O)Oc3ccc(C(N)=S)cc3)ccc2c1 [otenaproxesul, (S)-4-carbamothioylphenyl 2-(6-methoxynaphthalen-2-yl) propanoate]
patients with treatment-related >3×ULN ALT and/or AST (ALT and/or AST; 150 mg (6/61)): 9.8% | patients with treatment-related increases in ALT and/or AST (ALT and/or AST; 150 mg (6/61)): 9.8% | patients with treatment-related >3×ULN ALT and/or AST (ALT and/or AST; 200 mg (9/125)): 7.2% | patients with treatment-related increases in ALT and/or AST (ALT and/or AST; 200 mg (9/125)): 7.2% | patients with treatment-related >3×ULN ALT and/or AST (ALT and/or AST; 250 mg (17/132)): 12.9% | patients with treatment-related increases in ALT and/or AST (ALT and/or AST; 250 mg (17/132)): 12.9%

COc1ccc2cc([C@H](C)C(=O)Oc3ccc(C(N)=S)cc3)ccc2c1 [crystalline otenaproxesul]
lower M25 plasma concentration than the exemplary ASDs [1]: 10 × | Peak area of methylene blue (H2S release) ([2]; 0 hrs): 1.6 | Peak area of methylene blue (H2S release) ([2]; 0.5 hrs): 2.4 | Peak area of methylene blue (H2S release) ([2]; 1 hr): 2 | Peak area of methylene blue (H2S release) ([2]; 2 hrs): 2.3 | Peak area of methylene blue (H2S release) ([2]; 3 hrs): 1.8 | Peak area of methylene blue (H2S release) ([2]; 4 hrs): 1.9 | Peak area of methylene blue (H2S release) ([2]; 8 hrs): 2.4 | solubility at 2 h [3]: 51 µg/mL (≈ 140 µM) | PGE2 inhibition (PGE2; Day 1 12-hour): not maintained | PGE2 inhibition (PGE2; Day 4 pre-treatment): recovered to a large extent | H2S release ([4]; 0.5 hrs): 0.7 µM | H2S release ([4]; 1 hr): 0.7 µM | H2S release ([4]; 2 hrs): 1.2 µM | H2S release ([4]; 3 hrs): 2.2 µM | H2S release ([4]; 4 hrs): 3.7 µM | H2S release ([4]; 8 hrs): 8.5 µM | M25 plasma concentration at 1 hour, Day 4, compared ([5]; crystalline HED 527 mg vs amorphous HED 562 mg): comparable M25 plasma concentrations | Cmax Day 4/Day 1 ratio ([5]; dogs, HED 526.5 mg): 1.4 | steady state pharmacokinetics of M25 compared ([5]; dogs, crystalline 526.5 mg vs amorphous 561.6 mg HED): virtually identical
